Source: PubChem BioAssay (NCI)
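Following 48 hours of exposure in 96-well plates, responses at five concentrations were used to interpolate endpoints linearly. At the TGI there is no net growth.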

What was measured:
Assay in all cases: inhibition of tumour cell growth, NCI panel, 48 h
HS 578T breast = system: HS 578T breast
M14 melanoma = system: M14 melanoma
NCI-H226 lung = system: NCI-H226 lung
MDA-MB-435 = system: MDA-MB-435
IGROV1 ovarian = system: IGROV1 ovarian
CCRF-CEM leukemia = system: CCRF-CEM leukemia
SK-MEL-28 melanoma = system: SK-MEL-28 melanoma
KM12 colon = system: KM12 colon
RXF 393 renal = system: RXF 393 renal
SK-MEL-2 melanoma = system: SK-MEL-2 melanoma
BT-549 breast = system: BT-549 breast
MCF7 breast = system: MCF7 breast
U251 CNS = system: U251 CNS
MALME-3M melanoma = system: MALME-3M melanoma
SK-MEL-5 melanoma = system: SK-MEL-5 melanoma
A498 renal = system: A498 renal
CAKI-1 renal = system: CAKI-1 renal
PC-3 prostate = system: PC-3 prostate
UO-31 renal = system: UO-31 renal
HCT-116 colon = system: HCT-116 colon
K-562 leukemia = system: K-562 leukemia
RPMI-8226 leukemia = system: RPMI-8226 leukemia
HCT-15 colon = system: HCT-15 colon
HCC-2998 colon = system: HCC-2998 colon
HL-60(TB) leukemia = system: HL-60(TB) leukemia
OVCAR-5 ovarian = system: OVCAR-5 ovarian
NCI-H522 lung = system: NCI-H522 lung
SNB-19 CNS = system: SNB-19 CNS
SN12C renal = system: SN12C renal
OVCAR-8 ovarian = system: OVCAR-8 ovarian
NCI-H460 lung = system: NCI-H460 lung
786-0 renal = system: 786-0 renal
T-47D breast = system: T-47D breast
SW-620 colon = system: SW-620 colon
SNB-75 CNS = system: SNB-75 CNS
NCI/ADR-RES ovarian = system: NCI/ADR-RES ovarian
OVCAR-3 ovarian = system: OVCAR-3 ovarian
MDA-MB-231 breast = system: MDA-MB-231 breast
SK-OV-3 ovarian = system: SK-OV-3 ovarian
HOP-62 NSCLC = system: HOP-62 NSCLC
MOLT-4 leukemia = system: MOLT-4 leukemia
SR leukemia = system: SR leukemia
LOX IMVI melanoma = system: LOX IMVI melanoma
SF-539 CNS = system: SF-539 CNS
HT29 colon = system: HT29 colon
EKVX NSCLC = system: EKVX NSCLC
UACC-62 melanoma = system: UACC-62 melanoma
OVCAR-4 ovarian = system: OVCAR-4 ovarian
ACHN renal = system: ACHN renal
TK-10 renal = system: TK-10 renal
SF-268 CNS = system: SF-268 CNS
A549 NSCLC = system: A549 NSCLC
SF-295 CNS = system: SF-295 CNS
UACC-257 melanoma = system: UACC-257 melanoma
HOP-92 NSCLC = system: HOP-92 NSCLC
MDA-N = system: MDA-N
COLO 205 colon = system: COLO 205 colon
NCI-H23 lung = system: NCI-H23 lung
DU-145 prostate = system: DU-145 prostate

Measured: TGI

COC(=O)C(=O)C(C(=O)C(=O)Nc1ccccc1OC)c1nc2ccc([N+](=O)[O-])cc2[nH]c1=O (stereo not given)
not listed: COLO 205 colon | NCI-H23 lung | DU-145 prostate
> 100 µM: all other assays above

Nc1ccc(COC(O)CN2CCCCC2)cc1[N+](=O)[O-] (stereo not given)
not listed: HS 578T breast | SK-OV-3 ovarian | HOP-62 NSCLC | LOX IMVI melanoma | EKVX NSCLC
> 100 µM: all other assays above
